Measurements taken from ChEMBL document CHEMBL5728179, “Triazolopyridines” (2020).

Experiment: Cellular gamma-Secretase Assay: Human neuroglioma H4 cells overexpressing human APP695 with the Swedish double mutation (K595N/M596L) were plated at 30,000 cells/well/100 μl in 96-well plates in IMDM media containing 10% FCS, […] Hygromycin B and incubated at 37° C., 5% CO2.3-4 hr post plating, compounds are a diluted in media and 50 μl is added as 1.5-fold concentrate to achieve the final concentration. Compound incubation is performed for 24 hr. Final doses typically range from 4 μM down to 0.0013 μM in half-log steps resulting in a eight point dose response curve.Appropriate controls using vehicle only and reference compound were applied to this assay. The final concentration of Me2SO was 0.4%.After incubation at 37° C., 5% CO2, the supernatant was subjected to quantification of secreted Aβ42 by the means of an AlphaLisa assay kit (Human Amyloid beta 1-42 Kit: Cat #AL203C, Perkin Elmer). 20 μl of the cell culture supernatant was transferred to an assay plate. Then 10 μl of a mixture of the AlphaLisa coupled capture antibody and the biotinylated detection antibody was added and incubated for 3 hours at room temperature while softly shaking the assay plate. After a further addition of 20 μl of the Donor beads the assay plate was incubated for 30 min at room temperature and constant shaking without exposure to direct light. The assay plate was then read on a Paradigm AlphaLisa Reader using the build-in program with excitation at 680 nm and emission at 570 nm.The measured signals were then used to calculate IC50 values for inhibition of Aβ42 secretion by nonlinear regression fit analysis using XLfit 5.3 software (IDBS).

EC50	Structure (SMILES)
26.6 nM	COc1cc(Nc2nc3c(C(C)C)ccc(OCC(F)(F)F)n3n2)ccc1-n1cnc(C)n1
49.4 nM	Cc1cn(-c2ccc(Nc3nc4c(C(C)C)ccc(OCC(F)(F)F)n4n3)cc2C#N)cn1
46.5 nM	Cc1ccc(OCC(F)(F)F)n2nc(N[C@@H]3[C@@H]4CC[C@H]3CN(c3cnnc(Cl)c3)C4)nc12
19.6 nM	COc1cc(N2C[C@H]3CC[C@@H](C2)C3Nc2nc3c(C(C)C)ccc(O[C@@H](C)C(F)(F)F)n3n2)ccn1 (some centres not stated)
44.8 nM	CC(C)(O)c1ccc(OCC(F)(F)F)n2nc(N[C@@H]3[C@@H]4CC[C@H]3CN(c3ccnc(C(F)(F)F)c3)C4)nc12
9.2 nM	Cc1ccc(OCC(F)(F)F)n2nc(N[C@@H]3[C@@H]4CC[C@H]3CN(c3ccnc(Cl)c3)C4)nc12
34.2 nM	Cc1ncn(-c2ccc(Nc3nc4c(C(C)C)ccc(OCC(F)(F)F)n4n3)cc2OC(F)F)n1
49 nM	Cc1noc(N2C[C@H]3CC[C@@H](C2)[C@@H]3Nc2nc3c(C(C)C)ccc(O[C@@H](C)C(F)(F)F)n3n2)n1
21.2 nM	COc1cc(Nc2nc3c(C(C)C)ccc(OCC(F)(F)F)n3n2)ccc1-c1ccnc(C)c1
15.6 nM	COc1cc(N2C[C@H]3CC[C@@H](C2)[C@@H]3Nc2nc3c(C)ccc(OCC(F)(F)F)n3n2)ccn1
43.8 nM	Cc1cc(N2C[C@H]3CC[C@@H](C2)[C@@H]3Nc2nc3c(C(C)(C)O)ccc(OCC(F)(F)F)n3n2)ncn1
43.6 nM	FC(F)(F)COc1cccc2nc(N[C@@H]3[C@@H]4CC[C@H]3CN(c3ccnc(C(F)(F)F)c3)C4)nn12
11.7 nM	CC(C)c1ccc(OCC(F)(F)F)n2nc(N[C@@H]3[C@@H]4CC[C@H]3CN(c3ccnc(Cl)c3)C4)nc12
40.5 nM	COc1cc(Nc2nc3c(C(F)(F)F)ccc(O[C@@H](C)C(F)(F)F)n3n2)ccc1-n1cnc(C)n1
25.4 nM	COc1cc(N2C[C@H]3CC[C@@H](C2)[C@@H]3Nc2nc3c(C(C)C)ccc(OCC(F)(F)F)n3n2)ccn1
23.2 nM	CC(C)c1ccc(OCC(F)(F)F)n2nc(N[C@@H]3[C@@H]4CC[C@H]3CN(c3cnnc(Cl)c3)C4)nc12

EC50	Structure (SMILES)
14.2 nM	COc1cc(N2C[C@H]3CC[C@@H](C2)[C@@H]3Nc2nc3c(C(C)C)ccc(O[C@@H](C)C(F)(F)F)n3n2)cnn1
43.2 nM	Cc1nnc(N2C[C@H]3CC[C@@H](C2)[C@@H]3Nc2nc3c(C(C)C)ccc(O[C@@H](C)C(F)(F)F)n3n2)o1
34.6 nM	Cc1cc(N2C[C@H]3CC[C@@H](C2)[C@@H]3Nc2nc3c(C(C)(C)O)ccc(O[C@@H](C)C(F)(F)F)n3n2)ncn1
29.9 nM	Cc1cc(N2C[C@H]3CC[C@@H](C2)[C@@H]3Nc2nc3c(C)ccc(OCC(F)(F)F)n3n2)ncn1
39 nM	COc1cc(Nc2nc3c(C(C)(C)O)ccc(O[C@@H](C)C(F)(F)F)n3n2)ccc1-n1cnc(C)n1
37.3 nM	Cc1cn(-c2ccc(Nc3nc4c(C(C)(C)O)ccc(O[C@@H](C)C(F)(F)F)n4n3)cc2C#N)cn1
38.5 nM	Cc1cc(N2C[C@H]3CC[C@@H](C2)[C@@H]3Nc2nc3c(C(C)C)ccc(OCC(F)(F)F)n3n2)ncn1
20.6 nM	Cc1ccc(OCC(F)(F)F)n2nc(N[C@@H]3[C@@H]4CC[C@H]3CN(c3ccnc(C(F)(F)F)c3)C4)nc12
7 nM	Cc1cc(N2C[C@H]3CC[C@@H](C2)[C@@H]3Nc2nc3cccc(OCC(F)(F)F)n3n2)sn1
40 nM	C[C@H](Oc1ccc(C(C)(C)O)c2nc(N[C@@H]3[C@@H]4CC[C@H]3CN(c3cnnc(Cl)c3)C4)nn12)C(F)(F)F
42.2 nM	COc1cc(Nc2nc3c(C(C)(C)O)ccc(O[C@@H](C)C(F)(F)F)n3n2)ccc1-n1cnc(Cl)n1
45.5 nM	Cc1ncn(-c2ccc(Nc3nc4c(C(C)(C)O)ccc(OCC(F)(F)F)n4n3)cc2OC(F)F)n1
33.2 nM	CC(C)c1ccc(OCC(F)(F)F)n2nc(N[C@@H]3[C@@H]4CC[C@H]3CN(c3ccnc(C(F)(F)F)c3)C4)nc12
21.2 nM	COc1cc(N2C[C@H]3CC[C@@H](C2)[C@@H]3Nc2nc3c(C(C)C)ccc(OCC(F)(F)F)n3n2)cnn1
37.4 nM	Cc1noc(N2C[C@H]3CC[C@@H](C2)[C@@H]3Nc2nc3c(C(C)C)ccc(OCC(F)(F)F)n3n2)n1
13.2 nM	CC(C)c1ccc(O[C@@H](C)C(F)(F)F)n2nc(N[C@@H]3[C@@H]4CC[C@H]3CN(c3cnnc(Cl)c3)C4)nc12
